Experimental data: PMC5008855 (Organic & biomolecular chemistry, 2016)

Target: T1, human COX-2 enzyme (cyclooxygenase II) (Homo sapiens, UniProt P35354)
T1 sequence (P35354 18-604): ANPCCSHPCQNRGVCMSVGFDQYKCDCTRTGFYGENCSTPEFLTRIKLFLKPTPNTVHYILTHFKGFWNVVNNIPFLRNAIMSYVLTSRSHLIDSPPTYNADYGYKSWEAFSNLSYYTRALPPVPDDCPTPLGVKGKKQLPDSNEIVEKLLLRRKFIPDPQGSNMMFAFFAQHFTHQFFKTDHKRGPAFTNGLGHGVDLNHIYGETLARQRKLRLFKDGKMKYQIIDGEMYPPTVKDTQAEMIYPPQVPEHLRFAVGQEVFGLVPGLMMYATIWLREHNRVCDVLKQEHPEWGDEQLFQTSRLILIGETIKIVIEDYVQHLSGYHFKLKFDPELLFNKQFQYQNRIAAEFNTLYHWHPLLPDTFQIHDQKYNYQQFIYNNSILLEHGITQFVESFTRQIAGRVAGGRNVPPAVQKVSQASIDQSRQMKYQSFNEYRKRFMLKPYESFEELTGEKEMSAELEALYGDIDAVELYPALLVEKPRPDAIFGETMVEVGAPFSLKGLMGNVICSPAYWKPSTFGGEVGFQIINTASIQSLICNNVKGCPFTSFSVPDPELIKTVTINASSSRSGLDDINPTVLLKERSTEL
Experiment: human COX-2 activity inhibition assay
Format: biochemical

IC50: 2000 nM
Substance: homoneoprofen [compound 2]
